According to paper PMC9722314, “Solubility Enhancement of a Poorly Water-Soluble Drug Using Hydrotropy and Mixed Hydrotropy-Based Solid Dispersion Techniques” (Advances in Pharmacological and Pharmaceutical Sciences, 2022):
Where “and” joins values, the source holds several entries; their conditions need not be identical. Identical values can stand only once.

Tests used:
[1] = due to limited water solubility; cited from earlier work
[2] = Equilibrium solubility of rosuvastatin calcium in single hydrotropic agent solutions; format: physicochemical; details: for solubility thermodynamic at 24 h: aqueous hydrotropic agent solution, 37 °C, aqueous with cosolvent or surfactant or cyclodextrin, thermodynamic from solid
Description: At first, equilibrium solubility investigations were conducted with a variety of hydrotropic agents. […] In a 10 ml vial, 5 ml of a specific hydrotropic agent solution was accurately measured, and an excess of rosuvastatin calcium was added and physically agitated for 30 minutes until a saturated solution was generated. To achieve equilibrium solubility, the vial was shaken on a mechanical isothermal bath shaker at 37 ± 0.5°C for 24 hours, and the solution was allowed to equilibrate for another 24 hours. The resulting solution was filtered with a grade of 0.45 μm syringe filter. A portion of the sample was diluted with distilled water and examined at 242 nm using a UV-visibledouble-beam spectrophotometer against the respective solvent as a blank. The equilibrium solubility study was conducted in triplicate. The following formula was used for the calculation of solubility enhancement ratios:(1) Enhancement ratio=Solubility of drug in hydrotropic solution/Solubility of drug in water. Equation (1) is used for the calculation of the solubility enhancement ratio.

[3] = Saturated solubility study in distilled water (pure drug, solid dispersions, physical mixture); format: physicochemical; details: 37 °C, thermodynamic from solid, 37 ± 0.5°C, 24 h shaking + 24 h equilibration
Description: To assess the solubility of pure rosuvastatin calcium, produced solid dispersions, and physical mixtures in distilled water, saturation solubility tests were performed. The saturation solubility tests were performed in triplicate according to Higuchi and Connors' technique. The excess of solid dispersions and physical mixtures were added to vials containing 10 ml of distilled water. The vials were shaken for 24 hours on a mechanical isothermal bath shaker at 37 ± 0.5°C and then left alone for another 24 hours to equilibrate. A syringe filter with a grade of 0.45 μm was used to filter the drug-containing solution. An aliquot of the filtrate was suitably diluted with the corresponding reagent, and the dilution was analyzed on a UV-visibledouble-beam spectrophotometer [18].

[4] = Equilibrium solubility of rosuvastatin calcium in mixed hydrotropic solutions; format: physicochemical; details: total 40%; for solubility at 24 h: mixed hydrotropic agent solution in distilled water; for solubility at 24 h / solubility: 37 °C, aqueous with cosolvent or surfactant or cyclodextrin, thermodynamic from solid; for solubility: mixed hydrotropic solution in distilled water
Description: In order to create a clear solution, two to three hydrotropic agents were mixed and dissolved in distilled water. Next, an excessive amount of calcium rosuvastatin was added, and the mixture was shaken until no more rosuvastatin was dissolved. The solutions are mechanically shaken on a mechanical isothermal bath shaker at 37 ± 0.5°C for 24 hours, followed by another 24 hours of equilibration. A grade of 0.45 μm syringe filter was used to filter the resultant solution. Using a UV-visibledouble-beam spectrophotometer, a portion of the material was diluted with distilled water and analyzed at 242 nm. The equilibrium solubility studies were conducted in triplicate. To obtain optimal solubility of rosuvastatin calcium in water, a ratio of three hydrotropic agents was adjusted.

[5] = parameters: method as in earlier work; details: sodium salicylate (2.0 M); ref 18 (Nainwal et al.); cited from earlier work
[6] = cited from earlier work
[7] = In vitro dissolution rate study, USP apparatus I (basket); format: physicochemical; details: within 45 min; 900 ml 0.05 M citrate buffer pH 6.6, 50 rpm, 37°C, 10 mg drug; listed as pure drug
Description: In vitro dissolution of rosuvastatin calcium solid dispersions, physical mixtures, and the pure drug was investigated using a basket stirrer in a USP dissolution apparatus (Industrial Lab) (USP apparatus I method). The dissolution medium was 900 ml of 0.05 M citrate buffer at pH 6.6, which is recommended by the US Food and Drug Administration for dissolution studies with rosuvastatin calcium. The rotation speed was 50 rpm, and the temperature was kept constant at 37 ± 0.5°C during the experiment. Each test employed solid dispersions containing 10 mg of rosuvastatin calcium. At known intervals of time of 5, 10, 15, 20, 25, 30, and 45 minutes, 5 ml of the dissolution medium sample was removed and refilled with the same quantity of medium to maintain a consistent volume throughout the experiment. The withdrawn material was filtered using a 0.45 μm syringe filter. After dilution with a 0.05 M citrate buffer solution, the samples were spectrophotometrically analyzed by detecting the absorbance at 241 nm. […] The dissolution studies of each formulation were conducted in triplicate.

For `CC(C)c1nc(N(C)S(C)(=O)=O)nc(-c2ccc(F)cc2)c1/C=C/[C@@H](O)C[C@@H](O)CC(=O)O` [rosuvastatin calcium, Rosuvastatin calcium], the “Biopharmaceutics classification system (BCS) class” value [1] is listed as “class II”, the solubility thermodynamic at 24 h ([2]; citric acid 10% w/v aqueous solution) is listed as 0.45 ± 0.003 mg/mL and the solubility thermodynamic at 24 h ([2]; citric acid 20% w/v aqueous solution) is listed as 0.75 ± 0.05 mg/mL. It also gave a solubility thermodynamic at 24 h ([2]; citric acid 30% w/v aqueous solution) of 0.78 ± 0.1 mg/mL, a solubility thermodynamic at 24 h ([2]; citric acid 40% w/v aqueous solution) of 0.93 ± 0.17 mg/mL and a solubility thermodynamic at 24 h ([2]; mannitol 10% w/v aqueous solution) of 0.49 ± 0.13 mg/mL. It also gave a solubility thermodynamic at 24 h ([2]; mannitol 20% w/v aqueous solution) of 0.599 ± 0.09 mg/mL, a solubility thermodynamic at 24 h ([2]; mannitol 30% w/v aqueous solution) of 0.66 ± 0.1 mg/mL and a solubility thermodynamic at 24 h ([2]; mannitol 40% w/v aqueous solution) of 0.89 ± 0.028 mg/mL. The solubility thermodynamic at 24 h ([2]; sodium benzoate 10% w/v aqueous solution) was 22.9 ± 1.46 mg/mL, the solubility thermodynamic at 24 h ([2]; sodium benzoate 20% w/v aqueous solution) was 39 ± 4.53 mg/mL and the solubility thermodynamic at 24 h ([2]; sodium benzoate 30% w/v aqueous solution) was 103 ± 14.1 mg/mL. It also gave a solubility thermodynamic at 24 h ([2]; sodium benzoate 40% w/v aqueous solution) of 119 ± 13.8 mg/mL, a solubility thermodynamic at 24 h ([2]; sodium salicylate 10% w/v aqueous solution) of 27 ± 1.04 mg/mL and a solubility thermodynamic at 24 h ([2]; sodium salicylate 20% w/v aqueous solution) of 49.9 ± 2.58 mg/mL. The solubility thermodynamic at 24 h ([2]; sodium salicylate 30% w/v aqueous solution) was 97.3 ± 4.13 mg/mL, the solubility thermodynamic at 24 h ([2]; sodium salicylate 40% w/v aqueous solution) was 125 ± 1.8 mg/mL and the solubility thermodynamic at 24 h ([2]; urea 10% w/v aqueous solution) was 0.85 ± 0.07 mg/mL. The solubility thermodynamic at 24 h ([2]; urea 20% w/v aqueous solution) was 1.06 ± 0.08 mg/mL, the solubility thermodynamic at 24 h ([2]; urea 30% w/v aqueous solution) was 1.13 ± 0.16 mg/mL and the solubility thermodynamic at 24 h ([2]; urea 40% w/v aqueous solution) was 1.36 ± 0.1 mg/mL. It also gave a Solubility enhancement ratio ([2]; citric acid solution vs water (fits the 40% w/v value)) of 2.192, a Solubility enhancement ratio ([2]; mannitol solution vs water (fits the 40% w/v value)) of 2.085 and a Solubility enhancement ratio ([2]; sodium benzoate solution vs water (fits the 40% w/v value)) of 277.556. The Solubility enhancement ratio ([2]; sodium salicylate solution (40%) vs water, listed as Rosuvastatin calcium) was 292.961, the Solubility enhancement ratio ([2]; sodium salicylate solution (40%) vs water, listed as rosuvastatin) was 292.9 and the Solubility enhancement ratio ([2]; urea solution vs water (fits the 40% w/v value)) was 3.198. For the same molecule, the solubility [3] was 0.427 ± 0.005 mg/mL, the Solubility enhancement ratio ([4]; SS : C 20 : 20 % w/v, vs water) was 76.015 and the Solubility enhancement ratio ([4]; SS : M 20 : 20 % w/v, vs water) was 128.66. For the same molecule, the Solubility enhancement ratio ([4]; SS : SB 5 : 35 % w/v, vs water) was 189.78, the Solubility enhancement ratio ([4]; SS : SB 10 : 30 % w/v, vs water) was 120.01 and the Solubility enhancement ratio ([4]; SS : SB 15 : 25 % w/v, vs water) was 389.37. It also gave a Solubility enhancement ratio ([4]; SS : SB 20 : 20 % w/v, vs water) of 421.02, a Solubility enhancement ratio ([4]; SS : SB : C, each 13.333 % w/v, vs water) of 112.005 and a Solubility enhancement ratio ([4]; SS : SB : M, each 13.333 % w/v, vs water) of 172.722. It also gave a Solubility enhancement ratio ([4]; SS : SB : U 10 : 15 : 15 % w/v, vs water) of 200.265, a Solubility enhancement ratio ([4]; SS : SB : U 20 : 05 : 15 % w/v, vs water) of 210.314 and a Solubility enhancement ratio ([4]; SS : SB : U 20 : 10 : 10 % w/v, vs water) of 235.414. For the same molecule, the Solubility enhancement ratio ([4]; SS : SB : U 20 : 15 : 05 % w/v, vs water) was 301.328, the Solubility enhancement ratio ([4]; SS : SB : U, each 13.333 % w/v, vs distilled water) was 449.137 and the Solubility enhancement ratio ([4]; SS : SB : U, each 13.333 % w/v, vs distilled water, listed as rosuvastatin) was 449. For the same molecule, the Solubility enhancement ratio ([4]; SS : U 20 : 20 % w/v, vs water) was 181.65, the solubility at 24 h ([4]; SS : C 20 : 20 % w/v) was 32.5 ± 0.52 mg/mL and the solubility at 24 h ([4]; SS : M 20 : 20 % w/v) was 55 ± 2.72 mg/mL. It also gave a solubility at 24 h ([4]; SS : SB 5 : 35 % w/v) of 81.1 ± 1.54 mg/mL, a solubility at 24 h ([4]; SS : SB 10 : 30 % w/v) of 51.3 ± 3.38 mg/mL and a solubility at 24 h ([4]; SS : SB 20 : 20 % w/v) of 180 ± 40.1 mg/mL. It also gave a solubility at 24 h ([4]; SS : SB : U, each 13.333 % w/v) of 192 ± 38.6 mg/mL, a solubility at 24 h ([4]; SS : U 20 : 20 % w/v) of 77.6 ± 2.31 mg/mL and a solubility ([4]; SS : SB 15 : 25 % w/v) of 166 ± 7.24 mg/mL. For the same molecule, the solubility ([4]; SS : SB : C, each 13.333 % w/v) was 47.9 ± 1.43 mg/mL, the solubility ([4]; SS : SB : M, each 13.333 % w/v) was 73.8 ± 1.49 mg/mL and the solubility ([4]; SS : SB : U 10 : 15 : 15 % w/v) was 85.6 ± 1.74 mg/mL. For the same molecule, the solubility ([4]; SS : SB : U 20 : 05 : 15 % w/v) was 89.9 ± 5.18 mg/mL, the solubility ([4]; SS : SB : U 20 : 10 : 10 % w/v) was 101 ± 12.7 mg/mL and the solubility ([4]; SS : SB : U 20 : 15 : 05 % w/v) was 129 ± 4.02 mg/mL. The solubility ([4]; SS : SB : U, each 13.333 % w/v) was 192 ± 38.6 mg/mL, the Increase in solubility [5] was 55 folds and the t1/2 [6] was 19 h. For the same molecule, the Oral bioavailability ([6]; oral) was “roughly 20%” and the “In vitro drug release” value [7] was 40.73 ± 4.44% and 40.73%.
